From patent US20240197815A1, “METHODS AND COMPOSITIONS FOR IMPROVING VISUAL FUNCTION IN OCULAR DISEASES AND DISORDERS” (ONL Therapeutics, Inc., priority 2021, published 2024)
Several values for one entry are separate records, joined by “and”; a condition that tells them apart may be missing. Equal entries are not always repeated. Ends that are not written are not given here.

Assays:
Type in all cases: in vivo, human
[1] = tested on: patients having macular degeneration characterized by geographic atrophy (GA); test: Clinical study in GA patients: best corrected visual acuity (BCVA) after single intravitreal injection; conditions: all patients receiving 25 ug and 50 ug, compared to baseline BCVA
IL1RA = test: Change in cytokine level in ocular fluid samples from administration to surgery
Method: (§1) The primary objective was to determine the Maximum Tolerated Dose (MTD) of a peptide an amino acid sequence […] and the structure of Formula III (ONL1204) and select doses for further clinical studies. During the study, ocular fluid samples were also collected at the time of study drug injection and at the time of vitrectomy. These samples were used for pharmacokinetic and pharmacodynamic analyses.
(§2) Patients were enrolled in ascending dose groups. […] Safety visits were conducted one day post-injection and as deemed necessary by the examining Investigator (at least 1 visit every 3 days) until Visit 3. At Visit 3 (3+ days post-injection, in accordance with standard of care) patients underwent surgical repair of their retinal detachment with vitrectomy (with or without scleral buckling) and gas or oil tamponade. At the time of surgery, an undiluted vitreous sample was collected for pharmacokinetic and pharmacodynamics analyses, and an aqueous sample was collected for pharmacodynamic analysis. Additional safety visits were targeted for and generally conducted one day post-surgery, 7 days (±3 days) post-surgery, 14 (+4 days) days post-surgery, and Weeks 6, 9, 12 (±7 days each), and Week 24 (+14 days; study exit).

ICAM1 = test: as above
Method: as §1, §2

IL18 = test: as above
Method: as §1, §2

MCP1 = test: as above
Method: as §1, §2

[2] = tested on: patients with retinal detachment; test: Clinical study in retinal detachment patients: BCVA after single intravitreal injection followed by vitrectomy; conditions: for summary statistics for all patients, mean (of the BCVA logMAR values of Table 2): all doses 25-200 ug; for BCVA logMAR study eye / BCVA Snellen study eye: individual patients
Method: as §1, §2
Therefore, a volume of 0.05 or 0.1 mL was injected into the study eye. Patient participation was approximately 24 weeks (6 months): a single injection treatment and 24 weeks of follow-up.

[3] = tested on: patients with retinal detachment; test: Clinical study in retinal detachment patients: safety, adverse event reporting
Method: as §1, §2
Planned determinations of dose limiting toxicity included consideration of the following events: • 1.

[4] = dose 25 ug (Table 1), individual patients
[5] = dose 50 ug (Table 1), individual patients
[6] = dose 100 ug (Table 1), individual patients
[7] = dose 200 ug (Table 1), individual patient
[8] = 8 patients, 25 ug and 50 ug cohorts

HHIYLGAVNYIY-NH2 [ONL1204]
visual outcomes (e.g., visual acuity) [1]: improvement in visual outcomes
change in IL1RA level from ONL1204 administration to surgery, mean (IL1RA; all patients of Table 7): mean decrease
IL1RA Percent Change (%) from time of administering ONL1204 to surgery (IL1RA; [4]): −51.0% and −57.4% and −99.3%
IL1RA Percent Change (%) from time of administering ONL1204 to surgery (IL1RA; [5]): −94.4% and −88.3% and −60.0%
IL1RA Percent Change (%) from time of administering ONL1204 to surgery (IL1RA; [6]): 8.5% and −46.1% and −65.2%
IL1RA Percent Change (%) from time of administering ONL1204 to surgery (IL1RA; [7]): −26.3%
change in ICAM level from ONL1204 administration to surgery, mean (ICAM1; all patients of Table 7): mean decrease
ICAM1 Percent Change (%) from time of administering ONL1204 to surgery (ICAM1; [4]): −82.4% and −42.7% and −86.2%
ICAM1 Percent Change (%) from time of administering ONL1204 to surgery (ICAM1; [5]): −100% and 0% and 64.0%
ICAM1 Percent Change (%) from time of administering ONL1204 to surgery (ICAM1; [6]): −43.9% and 24.9% and 22.7%
ICAM1 Percent Change (%) from time of administering ONL1204 to surgery (ICAM1; [7]): 0%
change in IL18 level from ONL1204 administration to surgery, mean (IL18; all patients of Table 7): mean decrease
IL18 Percent Change (%) from time of administering ONL1204 to surgery (IL18; [4]): −60.5% and −22.5% and −50.8%
IL18 Percent Change (%) from time of administering ONL1204 to surgery (IL18; [5]): −100% and 0% (2×)
IL18 Percent Change (%) from time of administering ONL1204 to surgery (IL18; [6]): −33.7% and 0% and 66.0%
IL18 Percent Change (%) from time of administering ONL1204 to surgery (IL18; [7]): 0%
change in MCP1 level from ONL1204 administration to surgery, mean (MCP1; all patients of Table 7): mean decrease
MCP1 Percent Change (%) from time of administering ONL1204 to surgery (MCP1; [4]): −41.4% and −6.02% and −35.9%
MCP1 Percent Change (%) from time of administering ONL1204 to surgery (MCP1; [5]): −48.4% and 11.6% and −3.12%
MCP1 Percent Change (%) from time of administering ONL1204 to surgery (MCP1; [6]): −9.5% and 78.5% and 500%
MCP1 Percent Change (%) from time of administering ONL1204 to surgery (MCP1; [7]): −2.4%
summary statistics for all patients, mean (of the BCVA logMAR values of Table 2) ([2]; Week 6, n 14): 0.65
summary statistics for all patients, mean (of the BCVA logMAR values of Table 2) ([2]; Week 9, n 13): 0.78
summary statistics for all patients, mean (of the BCVA logMAR values of Table 2) ([2]; Week 24, n 13): 0.56
visual outcomes ([2]; all patients receiving ONL1204, also with greater than 10 days of central vision loss, 3 to 7 days from administration to surgery, range of detachment heights and extents): improved visual outcomes were observed for all patients
visual outcomes (e.g., visual acuity) ([2]; retinal detachment, all patients receiving 25 ug and 50 ug, intravitreal injection then surgery): improvement in visual outcomes
BCVA logMAR study eye ([2]; week 6, dose 25 ug (Table 1)): 0.34 logMAR and 0.18 logMAR and 0.82 logMAR (2×)
BCVA Snellen study eye ([2]; week 6, dose 25 ug): 20/40 and 20/32 and 20/125 (2×)
BCVA logMAR study eye ([2]; week 6, dose 50 ug (Table 1)): 0.46 logMAR and 0.38 logMAR (2×) and 0.52 logMAR
BCVA Snellen study eye ([2]; week 6, dose 50 ug): 20/50 (2×) and 20/80
BCVA logMAR study eye ([2]; week 6, dose 100 ug (Table 1)): 0.8 logMAR and 0.7 logMAR and 1 logMAR and 1.6 logMAR
BCVA Snellen study eye ([2]; week 6, dose 100 ug): 20/125 and 20/100 and 20/200 and 20/800
BCVA logMAR study eye ([2]; week 6, dose 200 ug (Table 1)): 0.4 logMAR and 0.7 logMAR
BCVA Snellen study eye ([2]; week 6, dose 200 ug): 20/50 and 20/100
BCVA logMAR study eye ([2]; week 9, dose 25 ug (Table 1)): 0.14 logMAR and 0.12 logMAR and 0.64 logMAR and 0.78 logMAR
BCVA Snellen study eye ([2]; week 9, dose 25 ug): 20/25 (2×) and 20/100 and 20/125
BCVA logMAR study eye ([2]; week 9, dose 50 ug (Table 1)): 0.6 logMAR and 0.56 logMAR and 0.34 logMAR
BCVA Snellen study eye ([2]; week 9, dose 50 ug): 20/80 (2×) and 20/50
BCVA Snellen study eye ([2]; week 9, dose 100 ug, HM = hand motion): 20/200 and 20/80 and 20/400
BCVA logMAR study eye ([2]; week 9, dose 200 ug (Table 1)): 0.36 logMAR and 0.6 logMAR
BCVA Snellen study eye ([2]; week 9, dose 200 ug): 20/40 and 20/80
BCVA logMAR study eye ([2]; week 24, dose 25 ug (Table 1)): 0.5 logMAR and 0.2 logMAR and 0.68 logMAR and 0.7 logMAR
BCVA Snellen study eye ([2]; week 24, dose 25 ug): 20/60 and 20/32 and 20/100 (2×)
BCVA logMAR study eye ([2]; week 24, dose 50 ug (Table 1)): 0.76 logMAR and 0.2 logMAR and 0.64 logMAR and 0.34 logMAR
BCVA Snellen study eye ([2]; week 24, dose 50 ug): 20/125 and 20/32 and 20/80 and 20/50
BCVA logMAR study eye ([2]; week 24, dose 100 ug (Table 1)): 0.5 logMAR and 0.7 logMAR and 1.3 logMAR and 0.6 logMAR
BCVA Snellen study eye ([2]; week 24, dose 100 ug): 20/63 and 20/100 and 20/400 and 20/80
BCVA logMAR study eye ([2]; week 24, dose 200 ug (Table 1)): 0.2 logMAR
BCVA Snellen study eye ([2]; week 24, dose 200 ug): 20/32
patients experiencing adverse events ([3]; 4 patients receiving 25 ug and 4 patients receiving 50 ug): 7 out of 8
severity and relatedness of adverse events [3, 8]: Most were mild, and study procedure or surgery related
total adverse events [3, 8]: 20 adverse events
